{
  "source": "paper PMC5641330",
  "about": "“Prediction of a Therapeutic Dose for Buagafuran, a Potent Anxiolytic Agent by Physiologically Based Pharmacokinetic/Pharmacodynamic Modeling Starting from Pharmacokinetics in Rats and Human” (Frontiers in Pharmacology, 2017)",
  "key": {"[1]": {"test": "Biopharmaceutical classification system (BCS)", "assay_type": "physicochemical"}, "[2]": {"set-up": "method as in Hu et al., 2011", "conditions": "rats, oral administration; ref Hu et al., 2011; cited from earlier work"}, "[3]": {"set-up": "method as in Chen X. et al., 2013", "conditions": "clinical data; ref Chen X. et al., 2013; cited from earlier work"}, "[4]": {"test": "Clinical plasma PK in healthy volunteers after oral dosing (observed)", "assay_type": "in vivo", "conditions": "male, human; for AUC(0-t): read-out: AUC0-t Observed; for AUC(0-inf): read-out: AUC0-∞ Observed; for MRT inf: read-out: MRT(0-∞) Observed", "experimental": "The study protocol was approved by the Ethics Committee of Peking Union Medical College Hospital approved (Permission Number: 09103), and the Informed Consent Form was signed by all subjects before the study. PVP formulation of buagafuran was packed into capsules for oral administration. In a study of open-label, randomized, cross-over and dose-ranging design, 12 healthy male Chinese volunteers (aged 22–40 with weighing 55–70 kg) received a single oral dose of buagafuran (30, 60, and 120 mg). Serial blood samples were collected up to 48 h. In a phase I, randomized and multiple oral dose study, 5 healthy male Chinese volunteers (aged 20–31 with weighing 55–73 kg) received once-daily oral dose of 60 mg buagafuran for 7 days. On day 1 and 7, plasma samples were collected at the designed time points. Detailed clinical data was previously reported ([Yang et al., 2011], [2013]).\nPharmacokinetic parameters were determined with a non-compartmental model using WinNonlin v 6.0 (Pharsight Corporation, Mountain View, CA, United States). The area under the compound concentration versus time curve from time zero to the last time point (AUC0-t) and extrapolated to infinity (AUC0-∞) and the peak plasma concentration (Cmax) were calculated."}, "[5]": {"set-up": "method as in Zhang, 1997; Li et al., 2001; Li, 2010", "conditions": "human liver microsomes, ref Zhang, 1997, Li et al., 2001, 2010; cited from earlier work"}, "CYP3A and CYP2E": {"test_system": "CYP3A and CYP2E", "set-up": "method as in Zhang, 1997; Li et al., 2001; Li, 2010", "conditions": "ref Zhang, 1997, Li et al., 2001, 2010; cited from earlier work"}, "male Wistar rats": {"test_system": "male Wistar rats", "test": "Elevated plus-maze (EPM) test in the rat, with sigmoid Emax PK/PD fit", "assay_type": "in vivo", "experimental": "Anxiolytic activity of buagafuran was evaluated by EPM model. The rat EPM consisted of two open arms (50 cm × 10 cm) and two closed arms (50 cm × 10 cm × 40 cm) extending from the central platform (10 cm × 10 cm), the maze rising from the floor by 50 cm.\nMale Wistar rats, weighing between 130 and 160 g, were handled daily for 1 week prior to the study and were fasted for 12 h before experiment. Group I: the treated rats received buagafuran formulation of PVP (2, 4, and 8 mg/kg) via the oral route, while the rats that served as control group received vehicle (PVP). Experiments were carried out 10 min after oral administration of drugs or vehicles. Group II: Rats were evaluated 5, 10, 15, 30, 60, 90, 120, and 180 min after oral treatment with buagafuran (4 mg/kg). During a typical test, place each rat on the center of the maze, facing an open arm, and allowing free exploration of the maze for a 5 min test period. An entry was defined by all four paws enter an arm. The total number of arm entries, and the time spent in each type of arm was recorded. The maze was wiped down with 10% ethanol between tests. All experiments were carried out between 9:00 am and 12:00 am.\nThe difference between control and treatment group was statistically analyzed by one-way analyses of variance (ANOVA). Differences with probabilities of less than 5% (p < 0.05) were regarded as significant.\nThe PD Plus module implemented in GastroPlus was used. Based on the parameters (R^2 and Akaike criterion) in PK-PD model simulation, the best-fitting model, Sigmoid Emax model, was employed to fit therapeutic PD response (time spent on the open arms) with the brain concentration profile of buagafuran in rat using the equation 4:\n(4) E = E0+ EmaxC^γ/EC50 γ+C^γ.\nwhere C is in ng/mL, E0 is the time spent by the control group in the open arms which is equal to 0.63, Emax is the maximum response, EC50 is the concentration of a compound at which 50% of its maximum response is observed and γ is the Hill coefficient. The set of parameter values for the model was determined by GastroPlus software. GastroPlus simulation was then used to predict the brain concentration profile and PD response profile of buagafuran in human."}, "[6]": {"conditions": "oral, 60 mg, multiple dosing (60 mg once daily, 7 days)/first dosing"}, "[7]": {"conditions": "oral, 60 mg, multiple dosing (60 mg once daily, 7 days)/last dosing"}, "[8]": {"conditions": "po, 30 mg, oral single dosing 30 mg"}, "[9]": {"conditions": "po, 60 mg, oral single dosing 60 mg"}, "[10]": {"conditions": "po, 120 mg, oral single dosing 120 mg"}},
  "note": "Like-named read-outs stand apart in the source and are kept apart here.",
  "data": [
    {"smiles": "CCCCC1=CCC[C@@]2(C)CC[C@@H]3C[C@]12OC3(C)C", "note": "[buagafuran]", "values": [
      {"measurement": "biopharmaceutical classification system (BCS) class", "setting": "[1]", "value": "Class II"},
      {"measurement": "dose recovered as prototype in the bile", "setting": "[2]", "value": "< 0.3", "unit": "%"},
      {"measurement": "dose recovered as prototype in the urine", "setting": "[2]", "value": "less than 0.1%"},
      {"measurement": "radioactivity recovered in feces", "setting": "[2]", "value": 28.7, "unit": "%"},
      {"measurement": "radioactivity recovered in urine", "setting": "[2]", "value": 51.2, "unit": "%"},
      {"measurement": "total radioactivity recovered", "setting": "[2]", "value": "about 80%"},
      {"measurement": "urine excretion of the dose administered", "setting": "[3]", "value": "less than 1%"},
      {"measurement": "Cmax", "setting": "[4]; [6]", "value": 27.1, "unit": "ng/mL"},
      {"measurement": "AUC(0-t)", "setting": "[4]; [6]", "value": 99.4, "unit": "ng·h/mL"},
      {"measurement": "AUC(0-inf)", "setting": "[4]; [6]", "value": 113, "unit": "ng·h/mL"},
      {"measurement": "MRT inf", "setting": "[4]; [6]", "value": 9.94, "unit": "h"},
      {"measurement": "Tmax", "setting": "[4]; oral, 60 mg, multiple dosing (60 mg once daily, 7 days)/first dosing, read-out: Tmax Observed", "value": 2, "unit": "h"},
      {"measurement": "Cmax", "setting": "[4]; [7]", "value": 32, "unit": "ng/mL"},
      {"measurement": "AUC(0-t)", "setting": "[4]; [7]", "value": 163, "unit": "ng·h/mL"},
      {"measurement": "AUC(0-inf)", "setting": "[4]; [7]", "value": 231, "unit": "ng·h/mL"},
      {"measurement": "MRT inf", "setting": "[4]; [7]", "value": 20.9, "unit": "h"},
      {"measurement": "Tmax", "setting": "[4]; oral, 60 mg, multiple dosing (60 mg once daily, 7 days)/last dosing, read-out: Tmax Observed", "value": 3, "unit": "h"},
      {"measurement": "Cmax", "setting": "[4]; [8]", "value": 19.5, "unit": "ng/mL"},
      {"measurement": "AUC(0-t)", "setting": "[4]; [8]", "value": 47.6, "unit": "ng·h/mL"},
      {"measurement": "AUC(0-inf)", "setting": "[4]; [8]", "value": 54.9, "unit": "ng·h/mL"},
      {"measurement": "MRT inf", "setting": "[4]; [8]", "value": 3.33, "unit": "h"},
      {"measurement": "Tmax", "setting": "[4]; po, 30 mg, oral single dosing 30 mg, read-out: Tmax Observed", "value": 1, "unit": "h"},
      {"measurement": "Cmax", "setting": "[4]; [9]", "value": 39.8, "unit": "ng/mL"},
      {"measurement": "AUC(0-t)", "setting": "[4]; [9]", "value": 92.4, "unit": "ng·h/mL"},
      {"measurement": "AUC(0-inf)", "setting": "[4]; [9]", "value": 95.4, "unit": "ng·h/mL"},
      {"measurement": "MRT inf", "setting": "[4]; [9]", "value": 4.87, "unit": "h"},
      {"measurement": "Tmax", "setting": "[4]; po, 60 mg, oral single dosing 60 mg, read-out: Tmax Observed", "value": 1, "unit": "h"},
      {"measurement": "Cmax", "setting": "[4]; [10]", "value": 81.6, "unit": "ng/mL"},
      {"measurement": "AUC(0-t)", "setting": "[4]; [10]", "value": 246, "unit": "ng·h/mL"},
      {"measurement": "AUC(0-inf)", "setting": "[4]; [10]", "value": 272, "unit": "ng·h/mL"},
      {"measurement": "MRT inf", "setting": "[4]; [10]", "value": 5.28, "unit": "h"},
      {"measurement": "Tmax", "setting": "[4]; po, 120 mg, oral single dosing 120 mg, read-out: Tmax Observed", "value": 1, "unit": "h"},
      {"measurement": "Tmax", "setting": "[4]; po, oral 30–120 mg, read-out: time to peak plasma concentration (Tmax)", "value": "0.5 to 2", "unit": "h"},
      {"measurement": "extraction ratio", "setting": "[5]", "value": "about 50%"},
      {"measurement": "major enzymes involved in its metabolism in vitro", "setting": "CYP3A and CYP2E", "value": "CYP3A and CYP2E"},
      {"measurement": "time within which activity decreased", "setting": "male Wistar rats; rat EPM, oral 4 mg/kg", "value": "≤ 2", "unit": "h"},
      {"measurement": "time of maximal level of activity", "setting": "male Wistar rats; rat EPM, oral 4 mg/kg, p < 0.01 versus vehicle", "value": 15, "unit": "min"},
      {"measurement": "onset of action", "setting": "male Wistar rats; rat EPM, oral 4 mg/kg, p < 0.05 versus vehicle", "value": "≤ 10", "unit": "min"},
      {"measurement": "total time spent in open arms", "setting": "male Wistar rats; rat EPM, oral 2, 4 and 8 mg/kg, dose-dependent, inverted U-shaped", "value": "significantly prolonged"},
      {"measurement": "dose of maximum effect", "setting": "male Wistar rats; rat EPM, oral, p < 0.05 versus vehicle", "value": 4, "unit": "mg/kg"},
      {"measurement": "EC50", "setting": "male Wistar rats; time spent in open arms vs rat brain concentration, direct sigmoidal Emax model", "value": 0.0106, "unit": "µg/mL"}
    ]}
  ]
}
